Source: patent US20260232666A1, “COMPOSITIONS AND METHODS FOR INHIBITION OF RAS” (TheRas, Inc., priority 2023, published 2026)

Legend:
Format in all cases: binding
Conditions in all cases: 15 minutes reaction time point
[1] = biological target: T1, GppNHp-loaded KRAS4b (amino acids 1-169) G12C/C118S protein (Homo sapiens, UniProt P01116, C118S/G12C); experiment: Covalent cysteine 12 modification by MALDI-TOF MS, GppNHp-loaded KRAS G12C
T1 construct: KRAS4b (amino acids 1-169) G12C/C118S protein; made in house
Procedure, shortened: (§1)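 Percent modification comes from MALDI-TOF peak heights: the compound-adduct peak divided by the sum of the remaining-protein and adduct peaks. Reactions contained 1 μM protein and compound at a 1:2.5 ratio, in pH 7.3 HEPES buffer with NaCl and MgCl2, held 15 min at room temperature.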

[2] = biological target: T2, GTP-loaded KRAS4b (amino acids 1-169) G12C/C118S protein (Homo sapiens, UniProt P01116, C118S/G12C); experiment: Covalent cysteine 12 modification by MALDI-TOF MS, GTP-loaded KRAS G12C
T2 construct: KRAS4b (amino acids 1-169) G12C/C118S protein; made in house
Procedure, shortened: as §1

[3] = biological target: T3, GDP-loaded KRAS4b (amino acids 1-169) G12C/C118S protein (Homo sapiens, UniProt P01116, C118S/G12C); experiment: Covalent cysteine 12 modification by MALDI-TOF MS, GDP-loaded KRAS G12C
T3 construct: KRAS4b (amino acids 1-169) G12C/C118S protein; made in house
Procedure, shortened: as §1

| GppNHp-KRAS G12C percent of modification [1] | GTP-KRAS G12C percent of modification [2] | GDP-KRAS G12C percent of modification [3] | SMILES |
| --- | --- | --- | --- |
| A (percent of modification ≥70%) | B (50≤percent of modification <70%) | A (percent of modification ≥70%) | C=CC(=O)N1CC[C@@H](N(CC)c2nc(OC[C@]34CCCN3C[C@H](OC)C4)nc3c(F)c(-c4ccc(F)c5sc(N)c(C#N)c45)c(C(F)(F)F)cc23)[C@H]1C [Compound 158] |
| A (percent of modification ≥70%) | B (50≤percent of modification <70%) | A (percent of modification ≥70%) | C=CC(=O)N1CC[C@@H](N(CC)c2nc(OC[C@]34CCCN3C[C@H](F)C4)nc3c(F)c(-c4ccc(F)c5sc(N)c(C#N)c45)c(C(F)(F)F)cc23)[C@H]1C [Compound 159] |
| A (percent of modification ≥70%) | A (percent of modification ≥70%) | A (percent of modification ≥70%) | C=CC(=O)N1CC[C@@H](N(C)c2nc(OC[C@]34CCCN3C[C@H](OC)C4)nc3c(F)c(-c4ccc(F)c5sc(N)c(C#N)c45)c(Cl)cc23)[C@H]1C [Compound 161] |
| A (percent of modification ≥70%) | A (percent of modification ≥70%) | A (percent of modification ≥70%) | C=CC(=O)N1CC[C@@H](N(CC)c2nc(OC[C@@]34CCCN3C[C@H](OC)C4)nc3c(F)c(-c4ccc(F)c5sc(N)c(C#N)c45)c(Cl)cc23)[C@H]1C [Compound 163] |
| A (percent of modification ≥70%) | A (percent of modification ≥70%) | A (percent of modification ≥70%) | C=CC(=O)N1CC[C@@H](N(CC)c2nc(OC[C@]34CCCN3C[C@H](OC)C4)nc3c(F)c(-c4ccc(F)c5sc(N)c(C#N)c45)c(Cl)cc23)[C@H]1C [Compound 164] |
| A (percent of modification ≥70%) | A (percent of modification ≥70%) | A (percent of modification ≥70%) | C=CC(=O)N1CC[C@@H](N(CC)c2nc(OC[C@]34CCCN3C[C@H](F)C4)nc3c(F)c(-c4ccc(F)c5sc(N)c(C#N)c45)c(Cl)cc23)[C@H]1C [Compound 165] |
| A (percent of modification ≥70%) | A (percent of modification ≥70%) | A (percent of modification ≥70%) | C=CC(=O)N1CC[C@@H](N(CC)c2nc(OC[C@]34CCCN3C[C@H](F)C4)nc3cc(-c4ccc(F)c5sc(N)c(C#N)c45)c(F)cc23)[C@H]1C [Compound 167] |
| A (percent of modification ≥70%) | A (percent of modification ≥70%) | A (percent of modification ≥70%) | C=CC(=O)N1CC[C@@H](N(CC)c2nc(OC[C@]34CCCN3C[C@H](OC)C4)nc3c(F)c(-c4ccc(F)c5sc(N)c(C#N)c45)ccc23)[C@H]1C [Compound 169] |
